For three molecules, IC50 and selectivity ratio results are on record in ChEMBL document CHEMBL3867490, “Chalcone-benzoxaborole hybrids as novel anticancer agents” (Bioorg Med Chem Lett, 2016).

Data set [1] is described as follows: Cytotoxicity against human SKOV3 cells assessed as reduction in cell viability after 48 hrs by MTT assay. The conditions noted are these: SK-OV-3, 48 h. In kind it is functional, cell-based. Background: Tetrazolium assays rely on reduction of a dye to a coloured formazan, in cell work by metabolically active cells.
The nature of data set [2]: Cytotoxicity against human MDA-MB-231 cells assessed as reduction in cell viability after 48 hrs by MTT assay. In kind it is functional, cell-based. The conditions noted are these: MDA-MB-231, 48 h.
The nature of data set [3]: Cytotoxicity against human HCT116 cells assessed as reduction in cell viability after 48 hrs by MTT assay. Format: functional, cell-based. The settings on record: HCT-116, 48 h.
Data set [4] in a line: Cytotoxicity against human MCF10A cells assessed as reduction in cell viability after 48 hrs by MTT assay. Format: toxicity, cell-based, MCF-10A.
A short description of data set [5]: Cytotoxicity against human WI38 cells assessed as reduction in cell viability after 48 hrs by MTT assay. Format: toxicity, cell-based, WI-38.
Data set [6] is described as follows: Selectivity ratio of IC50 for human WI38 cells to IC50 for human MDA-MB-231 cells. In kind it is ADME, cell-based, WI-38. The conditions noted are these: WI38 cells versus MDA-MB-231 cells, read-out: Ratio IC50.
Data set [7] is described as follows: Selectivity ratio of IC50 for human MCF10A cells to IC50 for human SKOV3 cells. In kind it is ADME, cell-based, MCF-10A. The settings on record: MCF10A cells versus SKOV3 cells, read-out: Ratio IC50.
Data set [8] is described as follows: Selectivity ratio of IC50 for human WI38 cells to IC50 for human SKOV3 cells. Format: ADME, cell-based, SK-OV-3. The settings on record: WI38 cells versus SKOV3 cells, read-out: Ratio IC50.

Each structure is given as a SMILES string.

In the case of `O=C(/C=C/c1ccc2c(c1)B(O)OC2)c1ccccc1`, the IC50 in data set [1] is 3.4 µM; in data set [2], 2.3 µM; in data set [3], 6.1 µM. The IC50 at 48 h is 15.9 µM in data set [4] and 19.1 µM in data set [5]. The selectivity ratio in data set [6] was found to be 8.
Take `O=C(/C=C/c1ccc2c(c1)B(O)OC2)c1ccc(I)cc1`: the results for the IC50 in data set [1], in data set [2] and in data set [3] were 4.2 µM, 14.9 µM and 11.6 µM, respectively. The IC50 at 48 h in data set [4] and in data set [5] was more than 100 µM throughout. Besides, the selectivity ratio in data set [7] and in data set [8] was more than 25 in each case.
On to `COc1cc(C(=O)/C=C/c2ccc3c(c2)B(O)OC3)ccc1[N+](=O)[O-]`, for which the IC50 is 1.7 µM in data set [1], 11.4 µM in data set [2] and 4.1 µM in data set [3]. In addition, the IC50 at 48 h was 3.6 µM in data set [4] and 26 µM in data set [5].

For orientation: IC50 means the concentration at which inhibition is half-maximal.
